Structures can show the parent of a compound that is named as a salt.

In series [1] the test system is LNCaP ARE-Luc. Briefly: Luciferase assay in LNCaP cell lysates (LNCaP ARE-Luc). Format: cell-based. Conditions: Homo sapiens, Firefly Luciferase Assay System, read-out: LNCaP ARE-Luc % inhibition IC50 Ranges. The protocol:
Lysates were thawed on ice then collected into V-bottom 96-well tissue culture plates. Lysates were centrifuged at 4° C. for 5 minutes at 4000 rpm. To measure luminescence of LNCaP cell lysates the Firefly Luciferase Assay System (Promega) was employed, according to manufacturer's protocol. Relative luminescence units (RLU) in cell lysates were detected for 10 seconds using Promega GoMax-Multi Detection Luminometer (Promega).
Statistical analyses were performed using GraphPad Prism (Version 6.01 for Windows; La Jolla, Calif., USA). Comparisons between treatment and control groups were compared using Two-Way ANOVA with post-hoc Dunnett's and Tukey's tests. Differences were considered statistically significant at P values less than 0.05. Densitometric quantification of relative AR levels was determined by Image.

Series [2] in a line: Microsomal stability assay, HLM. Format: in vitro ADME. As to conditions: human, pH 7.4, 1 μM test compound, 0.5 mg/mL liver microsomes protein, 37° C., 0-60 min, read-out: HLM +/− NADPH: Clint (μL/min/mg protein). The text has this:
(§1) Microsomal Stability Assay: Microsomal stability assay is a widely used in vitro model to characterize the metabolic conversion by phase I enzymes, such as cytochrome P450 (CYP) enzymes. Since metabolism is known to be highly variable in different species, microsomal stability assay is commonly run in multiple species. Metabolic stability of testing compound can be evaluated using human, rat, mouse, or other animal liver or intestine microsomes to predict intrinsic clearance.
(§2) The assay was carried out in 96-well microtiter plates at 37° C. Reaction mixtures (25 μL) contained a final concentration of 1 μM test compound, 0.5 mg/mL liver microsomes protein, and 1 mM NADPH and/or 1 mM UDPGA (with alamethicin) in 100 mM potassium phosphate, pH 7.4 buffer with 3 mM MgCl2. The incubation was done with N=1, but duplicate incubation at each time point can be prepared if necessary. At each of the time points (for example, 0, 15, 30, and 60 minutes), 150 μL of quench solution (100% acetonitrile with 0.1% formic acid) with internal standard was transferred to each well. Besides the zero minute controls, mixtures containing the same components except the NADPH can also be prepared as the negative control. Verapamil was included as a positive control to verify assay performance. Plates were sealed, vortexed, and centrifuged at 4° C. for 15 minutes at 4000 rpm. The supernatant is transferred to fresh plates for LC/MS/MS analysis.
(§3) Summarized conditions: [Compound]=1 μM, [LM]=0.5 mg/mL, [NADPH]=1 mM and/or [UDPGA]=1 mM, Buffer=100 mM Potassium Phosphate, pH 7.4 with 3 mM MgCl2, Time=0, 15, 30, and 60 min, and Temperature=37° C.
(§4) All samples were analyzed on LC/MS/MS using an AB Sciex API 4000 instrument, coupled to a Shimadzu LC-20AD LC Pump system. Analytical samples were separated using a Waters Atlantis T3 dC18 reverse phase HPLC column (20 mm×2.1 mm) at a flow rate of 0.5 mL/min. The mobile phase consisted of 0.1% formic acid in water (solvent A) and 0.1% formic acid in 100% acetonitrile (solvent B).
(§5) The extent of metabolism is calculated as the disappearance of the test compound, compared to the 0-min time incubation. Initial rates are calculated for the compound concentration and used to determine half-life (t½) values and subsequently, the intrinsic clearance (Clint). Clint=(0.693)(1/t½ (min))(g of liver/kg of body weight)(mL incubation/mg of microsomal protein)(45 mg of microsomal protein/g of liver weight)
For orientation: Microsomes from liver hold many membrane-bound enzymes, among them those of drug oxidation.

The nature of series [3]: Hepatocyte stability assay, MH. Format: in vitro ADME. Conditions: mouse, cryopreserved hepatocytes, 1 μM test compound, 0.5 million cells/mL hepatocytes, 37° C., 0-180 min, read-out: MH +/− NADPH: Clint (μL/min/million cells). An excerpt: Hepatocyte Stability Assay: The […] of in vitro intrinsic clearance (Clint) for drug candidates in the early discovery stage is common practice in the pharmaceutical industry. The Clint values of drug candidates can help to confirm whether metabolism is the main clearance pathway when it is compared with the total body clearance in vivo. Hepatocytes are among the routinely used in vitro systems for measuring clearance. Hepatocytes have been reported to retain most of the phase I and phase II metabolic activities, and therefore, it is a useful tool to estimate the intrinsic clearance for potential drug candidates.
Metabolic stability of testing compound were be evaluated using human and mouse hepatocytes and can also be use rat, mouse, or other animal hepatocytes to predict intrinsic clearance. Cryopreserved hepatocytes were removed from the liquid nitrogen tank and thawed in a 37° C. water bath. As soon as the cells pulled away from the vial wall, they were decanted into 48 ml of warm HT medium. Cells were centrifuged for four minutes at 420 rpm (50 g). After removing the supernatant, pellet was re-suspended in warm DMEM medium. Cell density was counted by a hemacytometer.
The assay was carried out in 96-well microtiter plates. Compounds were incubated for 0, 60, 120, and 180 minutes at 37° C. with hepatocytes. Reaction mixtures (50 μL) contained a final concentration of 1 μM test compound, 0.5 million cells/mL hepatocytes in the DMEM medium. At each of the time points (for example, 0, 1, 2, and 3 hours), 200 μL of quench solution (100% acetonitrile with 0.1% formic acid) with internal standard was transferred to each well. Midazolam was included as a positive control to verify assay performance. Plates were sealed and centrifuged at 4° C. for 15 minutes at 4000 rpm. The supernatant is transferred to fresh plates for LC/MS/MS analysis.
Summarized conditions (customizable): [Compound]=[…], Positive control: midazolam and/or naloxone, [Hepatocyte]=0.5 million cells/Ml, time=0, 60, 120, and 180 m t=37° C.
All samples were analyzed on LC/MS/MS using an ABSciex API 4000 instrument, coupled to a Shimadzu LC-20AD LC Pump system. Analytical samples were separated using a Waters Atlantis T3 dC18 reverse phase HPLC column (20 mm×2.1 mm) at a flow rate of 0.5 mL/min. The mobile phase consisted of 0.1% formic acid in water (solvent A) and 0.1% formic acid in 100% acetonitrile (solvent B).
The extent of metabolism was calculated as the disappearance of the test compound, compared to the 0-min control reaction incubations. Initial rates were calculated for the compound concentration and used to determine t½ values and subsequently, the intrinsic clearance, Clint. Clint=(0.693)(1/t½ (min))(mL incubation/million cells)

Series [4] is described as follows: Microsomal stability assay, MLM. Format: in vitro ADME. Conditions: mouse, pH 7.4, 1 μM test compound, 0.5 mg/mL liver microsomes protein, 37° C., 0-60 min, read-out: MLM +/− NADPH: Clint (μL/min/mg protein).
Description: as §1, §2, §3, §4, §5

As a reminder, the IC50 is the concentration needed to halve the response being measured. Consider `CC(C)(c1ccc(OCC(=O)CNS(C)(=O)=O)cc1)c1cc(Cl)c(OC[C@H](O)CCl)c(Cl)c1` [A51(S), (S)—N-(3-(4-(2-(3,5-dichloro-4-(3-chloro-2-hydroxypropoxy)phenyl)propan-2-yl)phenoxy)-2-oxopropyl)methanesulfonamide], for which the IC50 in series [1] is under 100 nM. Also, the microsomal CLint at 1 μM in series [2] was at least 48 µL/min/mg. The hepatocyte CLint at 1 μM in series [3] was at least 18 µL/min/1e6 cells.

For `COCC(=O)COc1ccc(C(C)(C)c2cc(Cl)c(OC[C@H](O)CCl)c(Cl)c2)cc1` [A56(S), (S)-1-(4-(2-(3,5-dichloro-4-(3-chloro-2-hydroxypropoxy)phenyl)propan-2-yl)phenoxy)-3-methoxypropan-2-one], the IC50 in series [1] is at least 250 nM. The microsomal CLint at 1 μM in series [2] and in series [4] was at least 48 µL/min/mg throughout. The hepatocyte CLint at 1 μM in series [3] is at least 18 µL/min/1e6 cells.

As to `CC(C)(c1ccc(OCC(=O)CNS(C)(=O)=O)cc1)c1cc(Cl)c(OCCCCl)c(Cl)c1` [Compound A31, N-(3-(4-(2-(3,5-dichloro-4-(3-chloropropoxy)phenyl)propan-2-yl)phenoxy)-2-oxopropyl)methanesulfonamide], the half-inhibitory concentration (IC50) in series [1] is under 100 nM. In series [2], the microsomal CLint at 1 μM is at least 48 µL/min/mg. Further, the hepatocyte CLint at 1 μM in series [3] is at least 18 µL/min/1e6 cells.

As for `CC(C)(c1ccc(OCC(=O)CS(C)(=O)=O)cc1)c1cc(Cl)c(OCC(O)CCl)c(Cl)c1` (stereo not drawn) [Compound A54], the microsomal CLint at 1 μM in series [2] and in series [4] was at least 48 µL/min/mg in each case. Also, the hepatocyte CLint at 1 μM in series [3] was at least 18 µL/min/1e6 cells.

With `CC(C)(c1ccc(OCC(=O)CS(C)(=O)=O)cc1)c1cc(Cl)c(OCCCCl)c(Cl)c1` [Compound A55, 1-(4-(2-(3,5-dichloro-4-(3-chloropropoxy)phenyl)propan-2-yl)phenoxy)-3-(methylsulfonyl)propan-2-one], the half-maximal inhibitory concentration (IC50) in series [1] is at least 250 nM. Moreover, the microsomal CLint at 1 μM in series [2] and in series [4] was at least 48 µL/min/mg throughout. Also, the hepatocyte CLint at 1 μM in series [3] is at least 18 µL/min/1e6 cells.

Regarding `COCC(=O)COc1ccc(Cc2cc(Cl)c(OCC(O)CCl)c(Cl)c2)cc1` (stereo not drawn) [Compound A57], the microsomal CLint at 1 μM in series [2] and in series [4] was at least 48 µL/min/mg in each case. In addition, in series [3], the hepatocyte CLint at 1 μM was at least 18 µL/min/1e6 cells.

With `COCC(=O)COc1ccc(C(F)(F)c2cc(Cl)c(OCC(O)CCl)c(Cl)c2)cc1` (stereo not drawn) [Compound A58], the microsomal CLint at 1 μM in series [2] and in series [4] was at least 48 µL/min/mg in each case. In addition, the hepatocyte CLint at 1 μM in series [3] was at least 18 µL/min/1e6 cells.

`COCC(=O)COc1ccc(C(C)(C)c2cc(Cl)c(OCCCCl)c(Cl)c2)cc1` [Compound A59]: the microsomal CLint at 1 μM in series [2] and in series [4] was at least 48 µL/min/mg each time. In addition, the hepatocyte CLint at 1 μM in series [3] is at least 18 µL/min/1e6 cells.

For `COCC(=O)COc1ccc(C(C)(C)c2cc(Cl)c(OCC(C)(O)CCl)c(Cl)c2)cc1` (stereo not drawn) [Compound A60], the microsomal CLint at 1 μM in series [2] and in series [4] was at least 48 µL/min/mg each time. The hepatocyte CLint at 1 μM in series [3] was at least 18 µL/min/1e6 cells.

Regarding `CC(C)(c1ccc(OCC(=O)CNS(C)(=O)=O)cc1)c1cc(Cl)c(OCCCBr)c(Cl)c1` [Compound A61], the IC50 in series [1] was in the range of 100 to 250 nM. Moreover, the microsomal CLint at 1 μM in series [2] and in series [4] was at least 48 µL/min/mg throughout. Besides, in series [3], the hepatocyte CLint at 1 μM was at least 18 µL/min/1e6 cells.

For `CN(CC(=O)CNS(C)(=O)=O)c1ccc(C(C)(C)c2cc(Cl)c(OCCCl)c(Cl)c2)cc1` [Compound A81, N-(3-((4-(2-(3,5-dichloro-4-(2-chloroethoxy)phenyl)propan-2-yl)phenyl) (methyl)amino)-2-oxopropyl)methanesulfonamide hydrochloride], in series [1], the concentration for half-maximal inhibition (IC50) was at least 250 nM. The microsomal CLint at 1 μM in series [2] and in series [4] was 12 to 48 µL/min/mg in each case.

The values are drawn from patent US11485713B2, “Androgen receptor modulators and methods for their use” (ESSA Pharma, Inc., priority 2018, dated 2022).
